Laboratory results published in patent US20060183122A1, “Fanc gene mutations in cancer” (priority 2002, published 2006).
“Also recorded” adds a separate entry of the source.

Key:
Assay type in all cases: cell-based
CAPAN1 (BRCA2-mutated) = experiment: Survival study, Picogreen DNA quantitation
Description: (§1) Cells were incubated for a period of time long enough to allow non-treated cells to reach at least a threefold increase in fluorescence as compared to day 1 (3-7 days). Medium was changed every 48 hours. Cells were washed with PBS, and lysed in 100 μL sterile water. After 1 hour, 100 μl 0.5% Picogreen (Molecular Probes, Eugene, Oreg.) in tris-EDTA buffer was added to each well. After 45 minutes, wells were read in a fluorometer. Survival was calculated as a percentage; the wells without drugs were considered as 100 percent. Each experiment was done in duplicate; at least six experiments per cell line per concentration were performed.
(§2) The FA-defective pancreatic cancer cell lines Hs766T (FANCG-mutated), PL11 (FANCC-mutated) and CAPAN1 (BRCA2-mutated) and FA-proficient cell lines Su86.86 and MiaPaCa2 were treated with various concentrations of either MMC or cisplatin, and incubated in 96-well plates. Relative cell numbers were determined by measurement of doublestranded DNA content using Picogreen; wells containing no compound were used as controls. […] The FA-defective cell lines

PL11 (FANCC-mutated) = experiment: Survival study, Picogreen DNA quantitation
Description: as §1, §2

Hs766T (FANCG-mutated) = experiment: Survival study, Picogreen DNA quantitation
Description: as §1, §2

FaDu (FA-defective) = experiment: Survival study, Picogreen DNA quantitation
Hs766T [1] = experiment: Survival study, manual (hemacytometer) cell counts; conditions: manual cell counts after 3-4 population doublings (FIG. 3C)
Description: (§3) Cell counts: 1×10^5 cells were plated in tissue culture flasks (25 cm^2). The next day, the medium was substituted with MMC-containing medium (range 0-4.5 μM). Cells were counted after 3-4 population doublings (4-7 days) using a hemacytometer. Four experiments per cell line/concentration were done.
(§4) To confirm the results obtained with the Picogreen assay, we also assessed sensitivity to MMC of the cell lines MiaPaCa2, Su86.86, CAPAN1 and Hs766T with manual (hemacytometer) cell counts. This assay confirmed their hypersensitivity to MMC (FIG. 3C). The FA-defective HNSCC cell line FaDu was also hypersensitive to MMC (FIG. 3D), but not to cisplatin (FIG. 3E), as compared to the FA-proficient HNSCC cell lines A-253 and Detroit 562.

CAPAN1 [2] = experiment: Survival study, manual (hemacytometer) cell counts; conditions: manual cell counts after 3-4 population doublings (FIG. 3C)
Description: as §3, §4

BxPC3 = experiment: G2/M cell cycle arrest after MMC treatment (flow cytometry); conditions: BxPC3 (control line); MMC 2 hours, analyzed 48 hours later; concentrations as high as
Description: (§5) Cells were cultured in 25 cm^2 flasks and treated with MMC for two hours. Cells were washed with PBS and incubated with normal tissue culture medium for 48 hours.
(§6) Cells were obtained by trypsinization and resuspended in 3.7% paraformaldehyde in PBS, stained with Hoechst 33258 (Sigma), incubated at 4° C. for 10 min and analyzed using a flow cytometer. A “G2/M arrest” was defined as a twofold increase of the percentage of cells in G2/M, as compared to untreated cells.
(§7) The methods used to investigate cell “survival” upon treatment with MMC and cisplatin sum the effects of cell death, slow growth and the occurrence of a cell cycle arrest. To determine the potential contribution of an arrest, we analyzed cell cycle distributions of DNA content after MMC treatment. Six pancreatic cancer cell lines (BxPC3, MiaPaCa2, Su86.86, PL11, Hs766T and CAPAN1) and one HNSCC cell line (FaDu) were analyzed 48 hours after MMC treatment for 2 hours; a G2/M arrest was defined as a twofold increase of the fraction of cells containing 4N DNA content, as compared to untreated cells (FIG. 4). Hs766T arrested in G2/M at a MMC concentration of 100 nM, PL11 at 100 nM, CAPAN1 at 200 nM and FaDu at 500 nM, whereas control pancreatic cancer cell lines MiaPaCa2, Su86.86 and BxPC3 […] at MMC concentrations as high as 2 μM.

PL11 = experiment: as above; conditions: MMC 2 hours, analyzed 48 hours later, arrest = twofold increase of 4N fraction vs untreated
Description: as §5, §6, §7

Hs766T [3] = experiment: as above; conditions: MMC 2 hours, analyzed 48 hours later, arrest = twofold increase of 4N fraction vs untreated
Description: as §5, §6, §7

FaDu = experiment: as above; conditions: MMC 2 hours, analyzed 48 hours later, arrest = twofold increase of 4N fraction vs untreated
Description: as §5, §6, §7

MiaPaCa2 = experiment: as above; conditions: MiaPaCa2 (control line); MMC 2 hours, analyzed 48 hours later; concentrations as high as
Description: as §5, §6, §7

Su86.86 [4] = experiment: as above; conditions: Su86.86 (control line); MMC 2 hours, analyzed 48 hours later; concentrations as high as
Description: as §5, §6, §7

CAPAN1 [5] = experiment: as above; conditions: MMC 2 hours, analyzed 48 hours later, arrest = twofold increase of 4N fraction vs untreated
Description: as §5, §6, §7

Su86.86 [6] = experiment: Survival study, Picogreen DNA quantitation; conditions: compared to MiaPaCa2, less sensitive than CAPAN1 and PL11
Description: as §1, §2

[7] = 3-7 days, compared to MiaPaCa2 and Su86.86 (FIG. 3A)

Row | SMILES | Sensitivity to MMC (CAPAN1 (BRCA2-mutated); [7]) | Sensitivity to MMC (PL11 (FANCC-mutated); [7]) | Sensitivity to MMC (Hs766T (FANCG-mutated); [7]) | Sensitivity to MMC (FaDu (FA-defective); compared to A-253 and Detroit 562 (FIG. 3D)) | Sensitivity to MMC (Hs766T [1]) | Sensitivity to MMC (CAPAN1 [2]) | MMC concentration at which cells arrested in G2/M (BxPC3) [µM] | MMC concentration at which cells arrested in G2/M (PL11) [nM] | MMC concentration at which cells arrested in G2/M (Hs766T [3]) [nM] | MMC concentration at which cells arrested in G2/M (FaDu) [nM] | MMC concentration at which cells arrested in G2/M (MiaPaCa2) [µM] | MMC concentration at which cells arrested in G2/M (Su86.86 [4]) [µM] | MMC concentration at which cells arrested in G2/M (CAPAN1 [5]) [nM] | Sensitivity to cisplatin (CAPAN1 (BRCA2-mutated); 3-7 days (FIG. 3B)) | Sensitivity to cisplatin (PL11 (FANCC-mutated); 3-7 days (FIG. 3B)) | Sensitivity to cisplatin (Su86.86 [6]) | Sensitivity to cisplatin (Hs766T (FANCG-mutated); compared to MiaPaCa2, less sensitive than CAPAN1 and PL11) | Hypersensitive to cisplatin (FaDu (FA-defective); compared to A-253 and Detroit 562 (FIG. 3E))
1 | CO[C@@]12[C@H](COC(N)=O)C3=C(C(=O)C(C)=C(N)C3=O)N1C[C@@H]1N[C@@H]12 [MMC, mitomycin C] | hypersensitive; also recorded: increased sensitivity | hypersensitive; also recorded: increased sensitivity | hypersensitive; also recorded: increased sensitivity | hypersensitive | hypersensitivity | hypersensitivity | 2 | 100 | 100 | 500 | 2 | 2 | 200 |  |  |  |  | 
2 | N.N.[Cl][Pt][Cl] [cisplatin] |  |  |  |  |  |  |  |  |  |  |  |  |  | hypersensitive | hypersensitive | increased sensitivity | increased sensitivity | not
